Data on 15 compounds can be found in patent US10717746B2, “Chemical compounds” (ASTRAZENECA AB, priority 2015, dated 2020).

The target of test [1] is T1, CDK9/CycT1 (Homo sapiens (Human), UniProt P50750). Nature of the test: CDK9 kinase assay, ATP concentration at Km (mobility shift, Caliper LC3000). The note with it: 6 μM ATP, 3 nM CDK9/CycT1; read-out: CDK9 ATP conc. at Km (IC50). Type of test: biochemical. Here is the method:
(§1) Activity of CDK9 was determined in-vitro using a mobility shift assay on a Caliper LC3000 reader (Caliper/PerkinElmer), which measures fluorescence of a phosphorylated and unphosphorylated fluorescent peptide substrate and calculates a ratiometric value to determine percent turnover. Phosphorylation of the peptide in the presence and absence of the compound of interest was determined. Enzyme/substrate/adenosine triphosphate (ATP) mix (3 nM CDK9/CycT1, 6 μM ATP, 1.5 μM CDK9 peptide substrate (FITC-X-GSRTPMY-NH2 (X: epsilon aminocaproic acid)), 50 mM HEPES (pH7.2), 1 mM dithiothreitol, 0.01% tween 20, 50 μg/mL bovine serum albumin, (final assay concentration)) (5 μl) was preincubated with 2 μl of compound for 15 minutes at 25° C. Reactions were initiated with 5 μl of 24 mM MgCl2 (10 mM final assay concentration) in buffer (50 mM HEPES (pH7.2), 1 mM dithiothreitol, 0.01% tween 20, 50 μg/mL bovine serum albumin, (final assay concentration) and incubated at 25° C. for 90 minutes and reactions were stopped by addition of 5 μl of Stop mix consisting of 65 mM HEPES (pH7.2), 35.5 mM EDTA, 0.227% Coatin Reagent 3 (Caliper/PerkinElmer), and 0.003% Tween. Phosphorylated and unphosphorylated substrate was detected by a Caliper LC3000 reader (Caliper/PerkinElmer) in the presence of separation buffer consisting of 100 mM HEPES (pH7.2), 15.8 mM EDTA, 0.1% Coatin Reagent 3 (Caliper/PerkinElmer), 0.015% Brij-35, 5% DMSO, and 5.6 mM MgCl2. CDK9 enzyme was acquired from Carna Biosciences (Catalogue number 04-110), the CDK9 peptide substrate was acquired from Intonation (Boston, Mass.; Custom-made).

Test [2] has as its target T1, CDK9/CycT1. Nature of the test: CDK9 kinase assay, high ATP concentration (5 mM ATP). Type of test: biochemical. The settings on record: 1.5 nM CDK9, read-out: CDK9 High ATP conc. (IC50). The procedure: as §1
High ATP assays were run the same way with the following modifications: the final assay concentration of CDK9 was 1.5 nM and the final assay concentration of ATP was 5 mM.

The subject of test [3] is phosphorylation of RNA Polymerase II (RNAPII) at the Ser2 site in MCF7 cells. Nature of the test: MCF7 pSer2 RNAPII MOA assay (immunofluorescence). The class given is cell-based. The note with it: Homo sapiens, MCF7, 6 h, 6-hr treatment, read-out: p-Ser 2 RNAPII (IC50). Here is the method:
MCF7 pSer2 RNAPII MOA Assay
This is an immunofluorescence assay to determine the effect of CDK9 inhibitors on phosphorylation of RNA Polymerase II (RNAPII) at the Ser2 site in the breast cancer cell line, MCF7. On day one, 2500 MCF7 cells/well were seeded in 30 μl of growth media (RPMI+10% FBS+1% L-Glu+P/S) in 384-well black-wall clear-bottom plates, incubate plates overnight at 37° C. incubator. On the second day, the cells were treated with CDK9 inhibitors (7 point dose response ranging from 3 μM to 0.004 μM) using an ECHO liquid handler (Labcyte). After 6-hr treatment at 37° C. incubator, the cells were fixed with 30 µl/well 7.4% paraformaldehyde for 15 min at room temperature; the cells were washed twice with PBS, then permeabilized with 0.3% Triton X/PBS for 5 min at room temperature. After washing cells with PBS, the cells were incubated with 1:2000 diluted Anti-Ser2 Phospho-RNA pol II antibody (Covance MMS-129R) in 3% FBS/0.1% PBST overnight at 4° C. On the next day, the cells were washed twice with 0.1% PBST, then incubated with 1:1000 diluted Alexa Fluor 488 Goat-anti-mouse antibody (Life Technologies A-11001) and 1:4000 diluted DAPI at room temperature in dark. After one hour incubation, the cells were washed twice with 0.1% PBST, and once with PBS. The plates where sealed and read on an Acumen eX3 microplate cytometer (TTP Labtech) to assess phosphorylation level in each well.

Another test relates to MV411 cells. Nature of the test: MV411 caspase activity assay (Caspase-Glo 3/7). Type of test: cell-based. The settings on record: Homo sapiens, MV4-11, 6 h, 6-hr treatment, caspase 3/7 induction. The procedure: MV411 Caspase Activity Assay
This is a cell assay to measure the induction of caspase activity in the acute myeloid leukemia cell line, MV411 after 6-hr treatment with CDK9 inhibitors. On the first day, 3000 MV411 cells/well were seeded in 50 μl of growth media (IMDM+10% FBS+2% L-Glu+P/S) in 384-well white plates, incubate plates in 37° C. incubator overnight. […] After 6 hour incubation in 37° C. incubator, 25 μl of Caspase-Glo 3/7 reagent (Promega) per well was added into each well, and plates were incubated at room temperature for 30 min in dark. The plates were read on an Infinite M200 microplate reader (Tecan) with a 100 ms integration time.

T1 sequence (P50750 whole entry): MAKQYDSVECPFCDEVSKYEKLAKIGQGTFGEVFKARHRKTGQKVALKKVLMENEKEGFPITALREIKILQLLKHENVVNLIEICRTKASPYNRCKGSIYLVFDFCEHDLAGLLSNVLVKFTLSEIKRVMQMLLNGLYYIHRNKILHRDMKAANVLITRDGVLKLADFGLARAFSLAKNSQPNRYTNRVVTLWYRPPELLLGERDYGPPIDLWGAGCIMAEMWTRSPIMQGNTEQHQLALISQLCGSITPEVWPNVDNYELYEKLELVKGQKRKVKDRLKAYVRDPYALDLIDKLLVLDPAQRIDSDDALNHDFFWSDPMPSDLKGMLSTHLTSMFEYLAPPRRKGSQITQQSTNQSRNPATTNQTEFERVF
T1 sequence (O60563 whole entry partner): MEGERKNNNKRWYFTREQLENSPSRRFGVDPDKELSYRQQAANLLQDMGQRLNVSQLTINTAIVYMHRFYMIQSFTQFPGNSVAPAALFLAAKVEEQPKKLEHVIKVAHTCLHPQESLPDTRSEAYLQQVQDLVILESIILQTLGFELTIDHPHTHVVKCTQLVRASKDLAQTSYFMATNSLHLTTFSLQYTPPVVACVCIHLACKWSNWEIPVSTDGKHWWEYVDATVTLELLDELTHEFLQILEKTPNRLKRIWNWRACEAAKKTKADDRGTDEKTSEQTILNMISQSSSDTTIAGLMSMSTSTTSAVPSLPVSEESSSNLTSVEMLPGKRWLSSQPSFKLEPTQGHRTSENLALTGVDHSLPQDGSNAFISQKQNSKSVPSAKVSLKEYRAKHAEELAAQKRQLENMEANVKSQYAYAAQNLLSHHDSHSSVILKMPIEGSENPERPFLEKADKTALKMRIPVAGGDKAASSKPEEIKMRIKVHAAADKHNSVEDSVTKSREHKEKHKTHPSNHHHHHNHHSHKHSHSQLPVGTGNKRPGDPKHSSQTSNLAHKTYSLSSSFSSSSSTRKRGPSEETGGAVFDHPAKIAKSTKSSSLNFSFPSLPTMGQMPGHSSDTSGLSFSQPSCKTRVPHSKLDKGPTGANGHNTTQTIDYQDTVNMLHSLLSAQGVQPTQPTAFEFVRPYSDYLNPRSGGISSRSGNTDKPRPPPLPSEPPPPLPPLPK

What is called IC50 is the concentration that inhibits the measured activity by half. Consider `CC(=O)N[C@@H]1CCC[C@H](C(=O)Nc2cc(-c3cnn4c3CC(C)(C)C4)ccn2)C1` [Example 16, (1S,3R)-3-acetamido-N-(4-(5,5-dimethyl-5,6-dihydro-4H-pyrrolo[1,2-b]pyrazol-3-yl)pyridin-2-yl)cyclohexanecarboxamide], for which the half-maximal inhibitory concentration (IC50) on CDK9/CycT1 [1] was under 3 nM; on CDK9/CycT1 [2], 28 nM; in test [3] it was 150 nM; in the test with MV411 cells, 100 nM.

Regarding `CC1(C)Cc2c(-c3ccnc(NC(=O)[C@H]4CCC[C@@H](NC(=O)C5(O)CC5)C4)c3)cnn2C1` [Example 17, (1S,3R)—N-(4-(5,5-dimethyl-5,6-dihydro-4H-pyrrolo[1,2-b]pyrazol-3-yl)pyridin-2-yl)-3-(1-hydroxycyclopropanecarboxamido)cyclohexanecarboxamide], the 50% inhibitory concentration (IC50) at CDK9/CycT1 [1] worked out at 4 nM; at CDK9/CycT1 [2], 36 nM; in test [3], 207 nM; in the test on MV411 cells, 140 nM.

For the compound `CC1(C)Cc2c(-c3ccnc(NC(=O)[C@H]4CCC[C@@H](NC(=O)C5COC5)C4)c3)cnn2C1` [Example 18, N-((1R,3S)-3-((4-(5,5-dimethyl-5,6-dihydro-4H-pyrrolo[1,2-b]pyrazol-3-yl)pyridin-2-yl)carbamoyl)cyclohexyl)oxetane-3-carboxamide], the half-inhibitory concentration (IC50) on CDK9/CycT1 [1] was under 3 nM; on CDK9/CycT1 [2] it was 14 nM; in test [3], 122 nM; in the test on MV411 cells it was 71 nM.

For `CC1(C)Cc2c(-c3cc(NC(=O)[C@H]4CCC[C@@H](NC(=O)C5COC5)C4)ncc3Cl)cnn2C1` [Example 19, N-((1R,3S)-3-((5-chloro-4-(5,5-dimethyl-5,6-dihydro-4H-pyrrolo[1,2-b]pyrazol-3-yl)pyridin-2-yl)carbamoyl)cyclohexyl)oxetane-3-carboxamide], the half-inhibitory concentration (IC50) at CDK9/CycT1 [1] is under 3 nM; on CDK9/CycT1 [2], under 3 nM; in test [3] it was 13 nM; with MV411 cells it was 11 nM.

As to `C[C@H](O)C(=O)N[C@@H]1CCC[C@H](C(=O)Nc2cc(-c3cnn4c3CC(C)(C)C4)c(Cl)cn2)C1` [Example 20, (1S,3R)—N-(5-chloro-4-(5,5-dimethyl-5,6-dihydro-4H-pyrrolo[1,2-b]pyrazol-3-yl)pyridin-2-yl)-3-((S)-2-hydroxypropanamido)cyclohexanecarboxamide], the IC50 was under 3 nM on CDK9/CycT1 [1], under 3 nM at CDK9/CycT1 [2], 10 nM in test [3] and 14 nM in the test on MV411 cells.

`CC1(C)Cc2c(-c3cc(NC(=O)[C@H]4CCC[C@@H](NC(=O)C5(O)CC5)C4)ncc3Cl)cnn2C1` [Example 21, (1S,3R)—N-(5-chloro-4-(5,5-dimethyl-5,6-dihydro-4H-pyrrolo[1,2-b]pyrazol-3-yl)pyridin-2-yl)-3-(1-hydroxycyclopropanecarboxamido)cyclohexanecarboxamide]: the 50% inhibitory concentration (IC50) at CDK9/CycT1 [1] is under 3 nM; at CDK9/CycT1 [2], under 3 nM; in test [3] it was under 7 nM; with MV411 cells it was 13 nM.

As for `CC1(C)Cc2c(-c3cc(NC(=O)[C@H]4CCC[C@@H](NC(=O)[C@@H]5CCOC5)C4)ncc3Cl)cnn2C1` [Example 23, (R)—N-((1R,3S)-3-((5-chloro-4-(5,5-dimethyl-5,6-dihydro-4H-pyrrolo[1,2-b]pyrazol-3-yl)pyridin-2-yl)carbamoyl)cyclohexyl)tetrahydrofuran-3-carboxamide], the 50% inhibitory concentration (IC50) on CDK9/CycT1 [1] is under 3 nM; on CDK9/CycT1 [2], under 3 nM; in test [3], 6 nM; in the test on MV411 cells, 12 nM.

Take `CC1(C)Cc2c(-c3cc(NC(=O)[C@H]4CCC[C@@H](NC(=O)[C@H]5CCOC5)C4)ncc3Cl)cnn2C1` [Example 24, (S)—N-((1R,3S)-3-((5-chloro-4-(5,5-dimethyl-5,6-dihydro-4H-pyrrolo[1,2-b]pyrazol-3-yl)pyridin-2-yl)carbamoyl)cyclohexyl)tetrahydrofuran-3-carboxamide]: the concentration for half-maximal inhibition (IC50) was under 3 nM at CDK9/CycT1 [1], 4 nM on CDK9/CycT1 [2], 11 nM in test [3] and 15 nM in the test with MV411 cells.

As to `CC(=O)N[C@@H]1CCC[C@H](C(=O)Nc2cc(-c3cnn4c3CC(C)(C)C4)c(F)cn2)C1` [Example 25, (1S,3R)-3-acetamido-N-(4-(5,5-dimethyl-5,6-dihydro-4H-pyrrolo[1,2-b]pyrazol-3-yl)-5-fluoropyridin-2-yl)cyclohexanecarboxamide], the IC50 at CDK9/CycT1 [1] is under 3 nM; on CDK9/CycT1 [2] it was 4 nM; in test [3], 25 nM; with MV411 cells it was 29 nM.

Consider `CC1(C)Cc2c(-c3ccnc(NC(=O)[C@H]4C[C@@H](O)C4)c3)cnn2C1` [Example 26, cis-N-(4-(5,5-dimethyl-5,6-dihydro-4H-pyrrolo[1,2-b]pyrazol-3-yl)pyridin-2-yl)-3-hydroxycyclobutanecarboxamide], for which the concentration for half-maximal inhibition (IC50) on CDK9/CycT1 [1] is under 3 nM; on CDK9/CycT1 [2], 93 nM; in test [3] it was 122 nM; in the test with MV411 cells, 152 nM.

As for `CC1(C)Cc2c(-c3cc(NC(=O)[C@H]4C[C@@H](O)C4)ncc3Cl)cnn2C1` [Example 27, cis-N-(5-chloro-4-(5,5-dimethyl-5,6-dihydro-4H-pyrrolo[1,2-b]pyrazol-3-yl)pyridin-2-yl)-3-hydroxycyclobutanecarboxamide], the IC50 at CDK9/CycT1 [1] is under 3 nM; at CDK9/CycT1 [2], 25 nM; in test [3], 44 nM; with MV411 cells it was 38 nM.

On to `CC(=O)N[C@@H]1CCC[C@H](C(=O)Nc2cc(-c3cnn4c3CCCC4)ncn2)C1` [Example 28, (1S,3R)-3-acetamido-N-(6-(4,5,6,7-tetrahydropyrazolo[1,5-a]pyridin-3-yl)pyrimidin-4-yl)cyclohexanecarboxamide], for which the half-inhibitory concentration (IC50) was 36 nM on CDK9/CycT1 [1], 4710 nM at CDK9/CycT1 [2], over 3000 nM in test [3] and 6600 nM in the test with MV411 cells.

Consider `O=C(Nc1cc(-c2cnn3c2CCCC3)ncn1)[C@H]1C[C@H](O)C1` [Example 29, trans-3-hydroxy-N-(6-(4,5,6,7-tetrahydropyrazolo[1,5-a]pyridin-3-yl)pyrimidin-4-yl)cyclobutanecarboxamide], for which the IC50 was 63 nM on CDK9/CycT1 [1], 7540 nM at CDK9/CycT1 [2], over 2630 nM in test [3] and 7220 nM in the test on MV411 cells.

Take `CC(=O)N[C@@H]1CCC[C@H](C(=O)Nc2cc(-c3cnn4c3CC(C)(C)C4)ncn2)C1` [Example 30, (1S,3R)-3-acetamido-N-(6-(5,5-dimethyl-5,6-dihydro-4H-pyrrolo[1,2-b]pyrazol-3-yl)pyrimidin-4-yl)cyclohexanecarboxamide]: the concentration for half-maximal inhibition (IC50) at CDK9/CycT1 [1] amounted to 7 nM; at CDK9/CycT1 [2] it was 606 nM; in test [3], 1240 nM; in the test with MV411 cells, 1050 nM.

Take `N#CCC(=O)N[C@@H]1CCC[C@H](C(=O)Nc2cc(-c3cnn4c3CCCC4)c(Cl)cn2)C1` [Example 31, (1S,3R)—N-(5-chloro-4-(4,5,6,7-tetrahydropyrazolo[1,5-a]pyridin-3-yl)pyridin-2-yl)-3-(2-cyanoacetamido)cyclohexanecarboxamide]: the half-inhibitory concentration (IC50) was under 3 nM on CDK9/CycT1 [1], 12 nM on CDK9/CycT1 [2], 36 nM in test [3] and 90 nM in the test on MV411 cells.
